Test results published in patent US8778966B2, “Quinolinone derivatives as PARP and tank inhibitors” (Janssen Pharmaceutica, NV, priority 2007, dated 2014).
Like-named read-outs stand apart in the source and are kept apart here.

Key:
PC-3 cells = test: Antiproliferative activity, Alamar Blue assay, PC-3 cells; format: cell-based, human; conditions: for IC50: Homo sapiens, PC-3, PC3 cells, read-out: PC3 antiproliferative activity pIC50 (converted)
How it was run: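 PC-3 cells seeded at 4.5×10^3 cells/ml, left to adhere 24 hr, then exposed to compound for 4 days. Resazurin (Alamar Blue) added for a further 24 hrs at 37° C; fluorescence read at 540/590 nm. Viability as % of untreated control, mean of 3 wells; IC50 by probit analysis, reported as pIC50.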

PC3 cells = test: EB1 Comet (microtubule disruption) assay; format: cell-based, human; conditions: 1 hour treatment; for minimal effective concentration: Homo sapiens, PC-3, 1 h, read-out: EB1 pLAC (converted)
How it was run: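 PC3 human prostate cancer cells exposed to compound for 1 h at 37 °C (0.6% DMSO final), methanol-fixed, immunostained for Eb1 and imaged at 20×. Value is the lowest active concentration (LAC): the concentration at which Eb1 foci are absent in at least 50% of treated cells.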

| Structure (SMILES) | minimal effective concentration (PC3 cells) | IC50 (PC-3 cells; Alamar Blue) | also measured |
| --- | --- | --- | --- |
| CCc1cc2ccc(C(C)(C#N)Cc3cccc(C#N)n3)cc2[nH]c1=O (single isomer, unassigned) [Compound 207] | 0.1 µM |  | PC3 antiproliferative activity pIC50 (PC-3 cells; PC3 cells, Alamar Blue): 6.8 |
| CCc1cc2ccc([C@@](C)(C#N)Cc3cccc(N(C)C)c3)cc2[nH]c1=O (single isomer, unassigned) [Compound 258] | 0.316 µM | 316 nM |  |
| CCc1cc2ccc([C@](C)(C#N)Cc3cccc(N(C)C)c3)cc2[nH]c1=O (single isomer, unassigned) [Compound 259] |  | 10000 nM |  |
| CCC[C@@](C#N)(Cc1ccccc1)c1ccc2cc(CC)c(=O)[nH]c2c1 (single isomer, unassigned) [Compound 263] | 3.16 µM | 5010 nM |  |
| CCC[C@](C#N)(Cc1ccccc1)c1ccc2cc(CC)c(=O)[nH]c2c1 (single isomer, unassigned) [Compound 264] |  | 10000 nM |  |
| CCc1cc2ccc([C@@](C)(C#N)Cc3cccc(C#N)c3)cc2[nH]c1=O (single isomer, unassigned) [Compound 268] |  | 10000 nM |  |
| CCc1cc2ccc([C@](C)(C#N)Cc3cccc(C#N)c3)cc2[nH]c1=O (single isomer, unassigned) [Compound 269] | 0.1 µM | 398 nM |  |
| CCc1cc2ccc([C@](C)(C#N)C[C@@H]3Cc4cc(C)ccc4O3)cc2[nH]c1=O (single isomer, unassigned) [Compound 400] |  | 10000 nM |  |
| C#Cc1cccc(C[C@](C)(C#N)c2ccc3cc(CC)c(=O)[nH]c3c2)c1 [Compound 2] |  | 10000 nM |  |
| C#Cc1cccc(C[C@@](C)(C#N)c2ccc3cc(CC)c(=O)[nH]c3c2)c1 [Compound 3] | 0.01 µM | 100 nM |  |
| CCc1cc2ccc(C(C#N)(CC)Cc3ccccc3)cc2[nH]c1=O (stereo not drawn) [Compound 32] | 1 µM |  | IC50 (PC-3 cells): 5010 nM |
| COc1ccccc1-c1nc(CC(C)(C#N)c2ccc3cc(C)c(=O)[nH]c3c2)no1 (stereo not drawn) [Compound 33] |  |  | IC50 (PC-3 cells): 2510 nM |
| Cc1cc2ccc(C(C)(C#N)Cc3cccc(C#N)c3)cc2[nH]c1=O (stereo not drawn) [Compound 34] | 0.316 µM |  | IC50 (PC-3 cells): 631 nM |
| Cc1cc2ccc([C@@](C)(C#N)Cc3cccc(C#N)c3)cc2[nH]c1=O [Compound 35] |  |  | IC50 (PC-3 cells): > 10000 nM |
| Cc1cc2ccc([C@](C)(C#N)Cc3cccc(C#N)c3)cc2[nH]c1=O [Compound 36] | 0.316 µM |  | IC50 (PC-3 cells): 200 nM |
| Cc1cc2ccc(C(C)(C#N)Cc3cccc(Cl)c3)cc2[nH]c1=O (stereo not drawn) [Compound 37] | 3.16 µM |  | IC50 (PC-3 cells): 398 nM |
| CC(C)c1cc2ccc(C(C)(C#N)Cc3ccccc3)cc2[nH]c1=O (stereo not drawn) [Compound 38] |  |  | IC50 (PC-3 cells): > 10000 nM |
| CC(=O)c1cc2ccc(C(C)(C#N)Cc3ccccc3)cc2[nH]c1=O (stereo not drawn) [Compound 39] |  |  | IC50 (PC-3 cells): > 10000 nM |
| CCc1cc2ccc(C(C)(C#N)Cc3cccc(OC[C@@H](O)CO)c3)cc2[nH]c1=O (stereo partly drawn) [Compound 56] | 3.16 µM | 6310 nM |  |
| CCc1cc2ccc(C(C)(C#N)Cc3cccc(CCC#N)c3)cc2[nH]c1=O (stereo not drawn) [Compound 169] |  | 3160 nM | EB1 pLAC (PC3 cells): 6 |
| CCc1cc2ccc(C(C)(C#N)Cc3cccc(CNS(C)(=O)=O)c3)cc2[nH]c1=O (stereo not drawn) [Compound 170] | 3.16 µM | 10000 nM |  |
| C=Cc1cccc(CC(C)(C#N)c2ccc3cc(CC)c(=O)[nH]c3c2)c1 (stereo not drawn) [Compound 172] | 0.1 µM | 631 nM |  |

| Structure (SMILES) | minimal effective concentration (PC3 cells) | IC50 (PC-3 cells; Alamar Blue) | also measured |
| --- | --- | --- | --- |
| CCc1cc2cc(F)c(C(C)(C#N)Cc3cccc(C#N)c3)cc2[nH]c1=O (stereo not drawn) [Compound 175] | 1 µM | 1000 nM |  |
| CCc1c(C)c2ccc(C(C)(C#N)Cc3cccc(C#N)c3)cc2[nH]c1=O (stereo not drawn) [Compound 181] | 0.316 µM | 3980 nM |  |
| CCc1cc2cc(OCCOC)c(C(C)(C#N)Cc3cccc(C#N)c3)cc2[nH]c1=O (stereo not drawn) [Compound 182] |  | 5010 nM |  |
| CCc1cc2ccc(C(C)(C#N)Cc3cccc(C#CCO)c3)cc2[nH]c1=O (stereo not drawn) [Compound 183] | < 0.0316 µM | 316 nM |  |
| CCc1cc2ccc(C(F)(C#N)Cc3ccccc3)cc2[nH]c1=O (stereo not drawn) [Compound 187] | 5.62 µM | 7940 nM |  |
| CCc1cc2ccc(C(C)(C#N)CN(C)Cc3ccccc3)cc2[nH]c1=O (stereo not drawn) [Compound 189] | 1 µM | 3160 nM |  |
| CCc1cc2ccc(C(C)(C#N)C(C)c3ccccc3)cc2[nH]c1=O (stereo not drawn) [Compound 198] | 0.316 µM | 2000 nM |  |
| CCc1cc2ccc([C@](C)(C#N)[C@@H](C)c3ccccc3)cc2[nH]c1=O [Compound 199] |  | 10000 nM |  |
| CCc1cc2ccc([C@](C)(C#N)[C@H](C)c3ccccc3)cc2[nH]c1=O [Compound 200] | 0.316 µM | 1000 nM |  |
| CCc1cc2ccc(C(C)(C#N)Cc3cccc(C#C[Si](C)(C)C)n3)cc2[nH]c1=O (stereo not drawn) [Compound 210] | 0.316 µM | 501 nM |  |
| C#Cc1cccc(CC(C)(C#N)c2ccc3cc(CC)c(=O)[nH]c3c2)n1 (stereo not drawn) [Compound 211] | 0.1 µM | 501 nM |  |
| CCc1cc2ccc(C(C)(C#N)Cc3cccc(N(C)C)n3)cc2[nH]c1=O (stereo not drawn) [Compound 213] | 0.316 µM | 501 nM |  |
| CCc1cc2ccc(C(C)(C#N)Cc3cccc(I)n3)cc2[nH]c1=O (stereo not drawn) [Compound 214] | 0.1 µM | 631 nM |  |
| CCOC(=O)c1cccc(CC(C)(C#N)c2ccc3cc(CC)c(=O)[nH]c3c2)n1 (stereo not drawn) [Compound 215] | 0.316 µM | 6310 nM |  |
| CCc1cc2ccc(C(C)(C#N)Cc3cccc(COC)n3)cc2[nH]c1=O (stereo not drawn) [Compound 216] | 1 µM | 10000 nM |  |
| CCc1cc2ccc(C(C)(C#N)Cc3cccc(OCCOC)n3)cc2[nH]c1=O (stereo not drawn) [Compound 219] | 1 µM | 2510 nM |  |
| CCc1cc2ccc(C(C)(C#N)Cc3cccc(CN)n3)cc2[nH]c1=O (stereo not drawn) [Compound 221] | 3.16 µM | 1000 nM |  |
| CCc1cc2ccc(C(C)(C#N)Cc3cccc(OCCO)c3)cc2[nH]c1=O (stereo not drawn) [Compound 262] |  | 501 nM |  |
| CCc1cc2ccc(C(C)(C#N)CCOc3cccc(C(F)(F)F)c3)cc2[nH]c1=O (stereo not drawn) [Compound 274] |  | 3980 nM |  |
| CCc1cc2ccc(C(C)(C#N)Cc3cccc(CN)c3)cc2[nH]c1=O (stereo not drawn) [Compound 290] | 3.16 µM | 501 nM |  |
| CCc1cc2ccc(C(C)(C#N)Cc3cccc(/C=C/S(C)(=O)=O)c3)cc2[nH]c1=O (stereo not drawn) [Compound 292] | 0.1 µM | 501 nM |  |
| CCc1c(Cl)c2ccc(C(C)(C#N)Cc3cccc(C#N)c3)cc2[nH]c1=O (stereo not drawn) [Compound 293] | 1 µM | 6310 nM |  |

| Structure (SMILES) | minimal effective concentration (PC3 cells) | IC50 (PC-3 cells; Alamar Blue) | also measured |
| --- | --- | --- | --- |
| CCc1cc2cc(OC)c(C(C)(C#N)Cc3ccccc3)cc2[nH]c1=O (stereo not drawn) [Compound 294] |  | 10000 nM |  |
| CCc1cc2ccc(C(C)(C#N)Cc3cccc(C#CCOC)c3)cc2[nH]c1=O (stereo not drawn) [Compound 297] | 0.1 µM | 1000 nM |  |
| CCc1cc2ccc(C(C)(C#N)Cc3cccc(C#CCN(C)C)c3)cc2[nH]c1=O (stereo not drawn) [Compound 298] | 1 µM | 6310 nM |  |
| CCc1cc2ccc(C(C)(C#N)CNCc3cccc(C#N)c3)cc2[nH]c1=O (stereo not drawn) [Compound 301] | 3.16 µM | 10000 nM |  |
| CCc1cc2ccc(C(C)(C#N)Cc3cnc(Cl)nc3Cl)cc2[nH]c1=O (stereo not drawn) [Compound 306] | 3.16 µM | 2000 nM |  |
| COc1cc(OC)nc(CC(C)(C#N)c2ccc3cc(C)c(=O)[nH]c3c2)n1 (stereo not drawn) [Compound 308] |  | 316 nM |  |
| CCOc1cc(OCC)nc(CC(C)(C#N)c2ccc3cc(CC)c(=O)[nH]c3c2)n1 (stereo not drawn) [Compound 309] | 3.16 µM | 2000 nM |  |
| CCc1cc2ccc(C(C)(C#N)Cc3cccc(Cl)n3)cc2[nH]c1=O (stereo not drawn) [Compound 310] | 1 µM | 631 nM |  |
| CCc1cc2ccc(C(C)(C#N)Cc3ncc(C)c(OC)c3C)cc2[nH]c1=O (stereo not drawn) [Compound 311] | 3.16 µM | 7940 nM |  |
| CCc1cc2ccc(C(C)(C#N)Cc3ccc(C)nc3)cc2[nH]c1=O (stereo not drawn) [Compound 327] |  | 7940 nM |  |
| CCc1cc2ccc(C(C)(C#N)Cc3cccc(C#N)n3)cc2[nH]c1=O (stereo not drawn) [Compound 329] | 0.316 µM | 501 nM |  |
| CCCn1ccnc1CC(C)(C#N)c1ccc2cc(CC)c(=O)[nH]c2c1 (stereo not drawn) [Compound 335] | 10 µM | 10000 nM |  |
| CCc1cc2ccc(C(C)(C#N)Cc3ccc4ccccc4n3)cc2[nH]c1=O (stereo not drawn) [Compound 336] | 1 µM | 2510 nM |  |
| CCc1cc2ccc(C(C)(C#N)Cc3nccn3CC)cc2[nH]c1=O (stereo not drawn) [Compound 337] | 1 µM | 5010 nM |  |
| CCc1cc2ccc(C(C)(C#N)Cc3nc4ccccc4n3C)cc2[nH]c1=O (stereo not drawn) [Compound 338] | 1 µM | 2000 nM |  |
| CCc1cc2ccc(C(C)(C#N)Cc3cccc(C)n3)cc2[nH]c1=O (stereo not drawn) [Compound 343] | 3.16 µM | 2000 nM |  |
| CCc1cc2ccc(C(C)(C#N)Cc3cccc(CO)n3)cc2[nH]c1=O (stereo not drawn) [Compound 345] |  | 3980 nM |  |
| CCc1cc2ccc(C(C)(C#N)Cc3cccc(OC)n3)cc2[nH]c1=O (stereo not drawn) [Compound 353] |  | 251 nM |  |
| CCc1cc2ccc(C(C)(C#N)Cc3cc(OC)nc(OC)n3)cc2[nH]c1=O (stereo not drawn) [Compound 358] |  | 2510 nM |  |
| CCc1cc2ccc(C(C)(C#N)Cc3cc(OC)ccn3)cc2[nH]c1=O (stereo not drawn) [Compound 373] |  | 10000 nM |  |
